Laboratory results published in patent US4861788A, “Antibacterial 1-normon-2-yl-heterocyclic compounds” (Beecham Group plc, priority 1983, dated 1989).
≈ marks a conversion by molar mass, not a printed value. Like-named read-outs stand apart in the source and are kept apart here.

How the values were obtained:
M. hyopneumoniae JF 435 = experiment: MIC against Mycoplasma in vitro (Friis broth with agarose); type: cell-based; conditions: Mesomycoplasma hyopneumoniae, JF435, 144 h
M. hyopneumoniae Str. 11 = experiment: as above; type: cell-based; conditions: Mesomycoplasma hyopneumoniae, STR.11, 144 h
[1] = test system: M. hyopneumoniae J2206/183^b; experiment: as above; type: cell-based; conditions: Mesomycoplasma hyopneumoniae, 144 h
M. hyopneumoniae TAM 6N = experiment: as above; type: cell-based; conditions: Mesomycoplasma hyopneumoniae, TAM6N, 144 h
[2] = test system: M. hyopneumoniae NCTC 101101; experiment: as above; type: cell-based; conditions: Mesomycoplasma hyopneumoniae, NCTC101101, 144 h
M. hyorhinis ATCC 25021 = experiment: as above; type: cell-based; conditions: Mesomycoplasma hyorhinis, ATCC25021, 144 h
[3] = test system: M. bovigenitalium ATCC 14173; experiment: as above; type: cell-based; conditions: 144 h
M. dispar NCTC 10125 = experiment: as above; type: cell-based; conditions: 144 h
Bacillus subtilis 6633 = experiment: MIC against human bacteria in vitro (nutrient agar, chocolated horse blood); type: cell-based; conditions: human; Bacillus subtilis 6633; 18 hours at 37° C; read-out: MIC
Protocol: (§1) The activity of the normonyl derivaties of the Examples against various bacteria which are important in diseases of humans, was assayed in vitro using serial dilutions in nurient agar with 5% chocolated horse blood.

E. coli ESS = experiment: as above; type: cell-based; conditions: Escherichia coli; human; E. coli ESS; 18 hours at 37° C; read-out: MIC
Protocol: as §1

E. coli NCTC 10418 [4] = experiment: as above; type: cell-based; conditions: Escherichia coli, NCTC10418; human; E. coli NCTC 10418; 18 hours at 37° C; read-out: MIC
Protocol: as §1

[5] = test system: Haemophilus influenzae Wy21; experiment: as above; type: cell-based; conditions: human; Haemophilus influenzae Wy21; 18 hours at 37° C; read-out: MIC
Protocol: as §1

K. aerogenes A = experiment: as above; type: cell-based; conditions: Klebsiella aerogenes; human; K. aerogenes A; 18 hours at 37° C; read-out: MIC
Protocol: as §1

P. mirabilis 889 = experiment: as above; type: cell-based; conditions: Proteus mirabilis; human; P. mirabilis 889; 18 hours at 37° C; read-out: MIC
Protocol: as §1

[6] = test system: Pasteurella multocida 1633; experiment: as above; type: cell-based; conditions: human; Pasteurella multocida 1633; 18 hours at 37° C; read-out: MIC
Protocol: as §1

[7] = test system: Ps. aeruginosa NCTC 10662; experiment: as above; type: cell-based; conditions: Pseudomonas aeruginosa, NCTC10662; human; Ps. aeruginosa NCTC 10662; 18 hours at 37° C; read-out: MIC
Protocol: as §1

Sarcina lutea 8340 = experiment: as above; type: cell-based; conditions: Micrococcus luteus; human; Sarcina lutea 8340; 18 hours at 37° C; read-out: MIC
Protocol: as §1

Staph. aureus Oxford [8] = experiment: as above; type: cell-based; conditions: Staphylococcus aureus
Protocol: as §1

Staph. aureus Russell = experiment: as above; type: cell-based; conditions: Staphylococcus aureus; human; Staph. aureus Russell; 18 hours at 37° C; read-out: MIC
Protocol: as §1

Staph. aureus W2827 = experiment: as above; type: cell-based; conditions: Staphylococcus aureus; human; Staph. aureus W2827; 18 hours at 37° C; read-out: MIC
Protocol: as §1

Strep. agalactiae 2788-B = experiment: as above; type: cell-based; conditions: Streptococcus agalactiae; human; Strep. agalactiae 2788-B; 18 hours at 37° C; read-out: MIC
Protocol: as §1

Strep. faecalis I = experiment: as above; type: cell-based; conditions: Enterococcus faecalis; human; Strep. faecalis I; 18 hours at 37° C; read-out: MIC
Protocol: as §1

Strep. spp. 64/848-C = experiment: as above; type: cell-based; conditions: human; Strep. spp. 64/848-C; 18 hours at 37° C; read-out: MIC
Protocol: as §1

E. coli NCTC 10418 [9] = experiment: MIC against veterinary bacteria in vitro (Diagnostic Sensitivity Test Agar); conditions: Escherichia coli, NCTC10418, 18 h
Protocol: (§2) The activity of the normonyl derivatives of the Examples against various veterinarily important bacteria, was assayed in vitro using two-fold serial dilutions in Diagnostic Sensitivity Test Agar inoculated with 10^4 organisms.

E. coli E1 = experiment: as above; conditions: Escherichia coli, E1, 18 h
Protocol: as §2

Bord. bronchiseptica B09 = experiment: as above; conditions: Bordetella bronchiseptica, B09, 18 h
Protocol: as §2

Past. haemolytica PA5 = experiment: as above; conditions: Mannheimia haemolytica, PA5, 18 h
Protocol: as §2

[10] = test system: Staph. aureus B4 (pen. resistant); experiment: as above; conditions: Staphylococcus aureus, 18 h
Protocol: as §2

Staph. aureus Oxford [11] = experiment: as above; conditions: Staphylococcus aureus, 18 h
Protocol: as §2

Strep. uberis SPU1 = experiment: as above; conditions: Streptococcus uberis, SPU1, 18 h
Protocol: as §2

M. hyopneumoniae MS 16 = experiment: MIC against Mycoplasma in vitro (Friis broth with agarose); type: cell-based; conditions: Mesomycoplasma hyopneumoniae, MS16, 144 h; M. hyopneumoniae MS 16; 6 days at 37° C; read-out: MIC
[12] = test system: Corynebacterium xerosis 9755; experiment: MIC against human bacteria in vitro (nutrient agar, chocolated horse blood); type: cell-based; conditions: human; Corynebacterium xerosis 9755; 18 hours at 37° C; read-out: MIC
Protocol: as §1

[13] = test system: Strep. pyogenes R80/421-A; experiment: as above; type: cell-based; conditions: Streptococcus pyogenes; human; Strep. pyogenes R80/421-A; 18 hours at 37° C; read-out: MIC
Protocol: as §1

[14] = M. hyopneumoniae JF 435, 6 days at 37° C, read-out: MIC
[15] = M. hyopneumoniae J2206/183^b, 6 days at 37° C, read-out: MIC
[16] = M. hyopneumoniae TAM 6N, 6 days at 37° C, read-out: MIC
[17] = M. hyorhinis ATCC 25021, 6 days at 37° C, read-out: MIC
[18] = M. bovigenitalium ATCC 14173, 6 days at 37° C, read-out: MIC
[19] = human, Staph. aureus Oxford, 18 hours at 37° C, read-out: MIC

SMILES	MIC (M. hyopneumoniae Str. 11) [µg/mL]	MIC [2] [µg/mL]	MIC (M. dispar NCTC 10125) [µg/mL]	MIC (Bacillus subtilis 6633) [µg/mL]	MIC (E. coli ESS) [µg/mL]	MIC (E. coli NCTC 10418 [4]) [µg/mL]	MIC [5] [µg/mL]	MIC (K. aerogenes A) [µg/mL]	MIC (P. mirabilis 889) [µg/mL]	MIC [6] [µg/mL]	MIC [7] [µg/mL]	MIC (Sarcina lutea 8340) [µg/mL]	MIC (Staph. aureus Russell) [µg/mL]	MIC (Staph. aureus W2827) [µg/mL]	MIC (Strep. agalactiae 2788-B) [µg/mL]	MIC (Strep. faecalis I) [µg/mL]	MIC (Strep. spp. 64/848-C) [µg/mL]	MIC (E. coli NCTC 10418 [9]) [µg/mL]	MIC (E. coli E1) [µg/mL]	MIC (Bord. bronchiseptica B09) [µg/mL]	also measured
CC(=Cc1nnc(-c2ccc(N(C)C)cc2)o1)CC1OCC(CC2OC2C(C)C(C)O)C(O)C1O (stereo not drawn) [Example 10, 2-(4-Dimethylaminophenyl)-5-(1-normon-2-yl)-1,3,4-oxadiazole A]	1 (≈ 2.05 µM)	5 (≈ 10.3 µM)	0.5 (≈ 1.03 µM)	2 (≈ 4.1 µM)	2 (≈ 4.1 µM)	> 128	2 (≈ 4.1 µM)	> 128	> 128	16 (≈ 32.8 µM)	> 128	> 128	4 (≈ 8.2 µM)	4 (≈ 8.2 µM)	16 (≈ 32.8 µM)	> 128	16 (≈ 32.8 µM)	> 80	> 80	> 80	MIC (M. hyopneumoniae JF 435): 1 µg/mL (≈ 2.05 µM); MIC [1]: 5 µg/mL (≈ 10.3 µM); MIC (M. hyopneumoniae TAM 6N): 5 µg/mL (≈ 10.3 µM); MIC (M. hyorhinis ATCC 25021): 1 µg/mL (≈ 2.05 µM); MIC [3]: 1 µg/mL (≈ 2.05 µM); MIC (Staph. aureus Oxford [8]; 18 h): 1 µg/mL (≈ 2.05 µM); MIC (Past. haemolytica PA5): 40 µg/mL (≈ 82 µM); MIC [10]: 5 µg/mL (≈ 10.3 µM); MIC (Staph. aureus Oxford [11]): 20 µg/mL (≈ 41 µM); MIC (Strep. uberis SPU1): 20 µg/mL (≈ 41 µM)
CC(=Cc1nnc(-c2cccc(C#N)c2)o1)CC1OCC(CC2OC2C(C)C(C)O)C(O)C1O (stereo not drawn) [Example 11, 2-(m-Cyanophenyl)-5-(1-normon-2-yl)-1,3,4-oxadiazole A]	0.25 (≈ 0.532 µM)	0.25 (≈ 0.532 µM)	0.05 (≈ 0.106 µM)	2 (≈ 4.26 µM)	2 (≈ 4.26 µM)	> 64	0.5 (≈ 1.06 µM)	> 64	> 64	2 (≈ 4.26 µM)	> 64	> 64	32 (≈ 68.2 µM)	16 (≈ 34.1 µM)	2 (≈ 4.26 µM)	> 64	2 (≈ 4.26 µM)	> 80	> 80	40 (≈ 85.2 µM)	MIC (M. hyopneumoniae JF 435; [14]): 0.25 µg/mL (≈ 0.532 µM); MIC [1, 15]: 0.25 µg/mL (≈ 0.532 µM); MIC (M. hyopneumoniae MS 16): 0.1 µg/mL (≈ 0.213 µM); MIC (M. hyopneumoniae TAM 6N; [16]): 0.25 µg/mL (≈ 0.532 µM); MIC (M. hyorhinis ATCC 25021; [17]): 0.1 µg/mL (≈ 0.213 µM); MIC [3, 18]: 0.1 µg/mL (≈ 0.213 µM); MIC (Staph. aureus Oxford [8]; [19]): 8 µg/mL (≈ 17 µM); MIC (Past. haemolytica PA5): 10 µg/mL (≈ 21.3 µM); MIC [10]: 20 µg/mL (≈ 42.6 µM); MIC (Staph. aureus Oxford [11]): 5 µg/mL (≈ 10.6 µM); MIC (Strep. uberis SPU1): 2.5 µg/mL (≈ 5.32 µM)
CC(=Cc1nc(-c2ccc([N+](=O)[O-])cc2)no1)CC1OCC(CC2OC2C(C)C(C)O)C(O)C1O (stereo not drawn) [Example 16, 5-(1-Normon-2-yl)-3-(4-nitrophenyl)-1,2,4-oxadiazole]	0.25 (≈ 0.511 µM)	1 (≈ 2.04 µM)	0.1 (≈ 0.204 µM)	16 (≈ 32.7 µM)	8 (≈ 16.3 µM)	> 64	4 (≈ 8.17 µM)	> 64	> 64	32 (≈ 65.4 µM)	> 64	> 64	16 (≈ 32.7 µM)	16 (≈ 32.7 µM)	32 (≈ 65.4 µM)	> 64	32 (≈ 65.4 µM)	> 80	> 80	10 (≈ 20.4 µM)	MIC (M. hyopneumoniae JF 435; [14]): 1 µg/mL (≈ 2.04 µM); MIC [1, 15]: 0.5 µg/mL (≈ 1.02 µM); MIC (M. hyopneumoniae TAM 6N; [16]): 1 µg/mL (≈ 2.04 µM); MIC (M. hyorhinis ATCC 25021; [17]): 0.25 µg/mL (≈ 0.511 µM); MIC [3, 18]: 0.5 µg/mL (≈ 1.02 µM); MIC [12]: > 64 µg/mL; MIC (Staph. aureus Oxford [8]; [19]): 16 µg/mL (≈ 32.7 µM); MIC [13]: 32 µg/mL (≈ 65.4 µM); MIC (Past. haemolytica PA5): 20 µg/mL (≈ 40.9 µM); MIC [10]: 1.25 µg/mL (≈ 2.55 µM); MIC (Staph. aureus Oxford [11]): 2.5 µg/mL (≈ 5.11 µM); MIC (Strep. uberis SPU1): 2.5 µg/mL (≈ 5.11 µM)
